Data on four compounds can be found in ChEMBL document CHEMBL2331296, “Synthesis of tetrahydroxybiphenyls and tetrahydroxyterphenyls and their evaluation as amyloid-β aggregation inhibitors” (Bioorg Med Chem Lett, 2013).

The source made the active and inactive calls. No cut-off for these calls is given here.

Test [1] concerns the target T1, Amyloid-beta precursor protein (Homo sapiens, UniProt P05067). As to the kind of experiment: Inhibition of amyloid-beta40 (unknown origin) aggregation by congo red spectral-shift assay.
In test [2] the target is T1, Amyloid-beta precursor protein. Nature of the test: Displacement of congo red from amyloid-beta40 (unknown origin) assessed as reduction of congo red-amyloid beta40 complex level. The arrangement: scale not given: the % may be the effect or the level left.
Test [3] shares this target. Nature of the test: Inhibition of amyloid-beta40 (unknown origin) aggregation at 250 uM by congo red spectral-shift assay.

T1 sequence (P05067 whole entry): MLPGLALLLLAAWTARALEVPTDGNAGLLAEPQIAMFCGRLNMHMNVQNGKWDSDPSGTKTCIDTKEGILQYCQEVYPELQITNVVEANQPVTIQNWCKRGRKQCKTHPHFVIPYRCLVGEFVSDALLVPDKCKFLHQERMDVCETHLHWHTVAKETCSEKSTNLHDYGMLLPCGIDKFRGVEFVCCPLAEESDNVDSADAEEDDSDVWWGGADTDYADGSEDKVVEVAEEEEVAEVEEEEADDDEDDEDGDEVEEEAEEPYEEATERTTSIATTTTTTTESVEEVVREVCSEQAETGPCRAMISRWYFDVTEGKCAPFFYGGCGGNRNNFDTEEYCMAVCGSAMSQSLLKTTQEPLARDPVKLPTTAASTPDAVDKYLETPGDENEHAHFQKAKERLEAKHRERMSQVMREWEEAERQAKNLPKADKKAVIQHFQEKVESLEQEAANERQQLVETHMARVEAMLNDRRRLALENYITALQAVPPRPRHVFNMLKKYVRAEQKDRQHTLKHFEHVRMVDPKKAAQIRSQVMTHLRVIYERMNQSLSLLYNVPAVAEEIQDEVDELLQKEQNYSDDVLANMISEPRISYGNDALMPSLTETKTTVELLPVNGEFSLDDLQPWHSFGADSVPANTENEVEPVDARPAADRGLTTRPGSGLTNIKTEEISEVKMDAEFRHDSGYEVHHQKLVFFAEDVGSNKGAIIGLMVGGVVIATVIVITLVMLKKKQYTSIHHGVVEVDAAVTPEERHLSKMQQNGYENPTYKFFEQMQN

Turning to `Oc1ccc(-c2cccc(-c3ccc(O)c(O)c3)c2)cc1O`, the 50% inhibitory concentration (IC50) in test [1] came to 92.5 µM. For the same compound, the Activity in test [2] amounted to 2.6%. For the same compound, the outcome in test [3] was inactive.
In the same order, the values of `Oc1ccc(-c2ccccc2-c2ccc(O)c(O)c2)cc1O` are 67.5 µM, 2.6% and “inactive”.
With `Oc1ccc(-c2ccc(-c3ccc(O)c(O)c3)cc2)cc1O`, in test [3], the outcome was Active.
Take `Oc1ccc(-c2ccc(O)c(O)c2)cc1O`: the IC50 in test [1] is 25 µM. Besides, the Activity in test [2] was found to be 2.6%.

A word on the IC50: it is the concentration that gives 50% inhibition.
